Experimental data from ChEMBL document CHEMBL4190309, “Synthesis, antimicrobial, DNA cleavage and antioxidant activities of tricyclic sultams derived from saccharin” (Eur J Med Chem, 2017).
Converted amounts (≈) assume the structure as drawn. The source made the active and inactive calls. No cut-off for these calls is given here.

How the values were obtained:
DNA [1] = experiment: Induction of Escherichia coli DNA cleavage at 8 uM after 1 hr by […] staining-based agarose gel electrophoresis; type: nucleic-acid assay
[2] = Antioxidant activity assessed as superoxide anion scavenging activity at 2 uM at pH 8.3 by NBT/NADH/PMS assay relative to control; type: functional
Staphylococcus aureus [3] = experiment: Antibacterial activity against Staphylococcus aureus ATCC 25923 assessed as diameter of inhibition zone at 100 uM after 24 hrs by cup diffusion method; type: functional; conditions: ATCC 25923, 24 h, read-out: DIZ
[4] = Antioxidant activity assessed as ABTS radical scavenging activity at 2 uM by spectrophotometric analysis; type: functional
DNA [5] = experiment: Induction of Escherichia coli DNA cleavage at 2 uM after 1 hr by […] staining-based agarose gel electrophoresis; type: nucleic-acid assay
DNA [6] = experiment: Induction of Escherichia coli DNA cleavage after 1 hr by […] staining-based agarose gel electrophoresis; type: nucleic-acid assay
[7] = Antioxidant activity assessed as superoxide anion scavenging activity at pH 8.3 by NBT/NADH/PMS assay; type: functional
Escherichia coli [8] = experiment: Antibacterial activity against Escherichia coli ATCC 25922 assessed as diameter of inhibition zone at 100 uM after 24 hrs by cup diffusion method; type: functional; conditions: ATCC 25922, 24 h, read-out: DIZ
DNA [9] = experiment: Induction of Escherichia coli DNA cleavage at 6 uM after 1 hr by […] staining-based agarose gel electrophoresis; type: nucleic-acid assay
DNA [10] = experiment: Induction of Escherichia coli DNA cleavage at 10 to 12 uM after 1 hr by […] staining-based agarose gel electrophoresis; type: nucleic-acid assay
Pseudomonas aeruginosa [11] = experiment: Antibacterial activity against Pseudomonas aeruginosa ATCC 27853 after 24 hrs by serial dilution method; type: functional; conditions: ATCC 27853, 24 h
Escherichia coli [12] = experiment: Antibacterial activity against Escherichia coli ATCC 25922 after 24 hrs by serial dilution method; type: functional; conditions: ATCC 25922, 24 h
DNA [13] = experiment: Induction of Escherichia coli DNA cleavage at 4 uM after 1 hr by […] staining-based agarose gel electrophoresis; type: nucleic-acid assay
Staphylococcus aureus [14] = experiment: Antibacterial activity against Staphylococcus aureus ATCC 25923 after 24 hrs by serial dilution method; type: functional; conditions: ATCC 25923, 24 h
Priestia megaterium = experiment: Antibacterial activity against Bacillus megaterium ATCC 14591 assessed as diameter of inhibition zone at 100 uM after 24 hrs by cup diffusion method; type: functional; conditions: ATCC 14591, 24 h, read-out: DIZ
[15] = Antiproliferative activity against hepatic cancer cells (unknown origin) at 50 uM by MTT assay relative to control; type: functional
Pseudomonas aeruginosa [16] = experiment: Antibacterial activity against Pseudomonas aeruginosa ATCC 27853 assessed as diameter of inhibition zone at 100 uM after 24 hrs by cup diffusion method; type: functional; conditions: ATCC 27853, 24 h, read-out: DIZ

In the case of `CC(C)[C@@H]1CC[C@@H](C)C[C@H]1OC(=O)C1=C2c3ccccc3S(=O)(=O)N2CC1`, the Activity (DNA [1]) is reported as “Active”, the Activity [2] is reported as 58.6% and the zone of inhibition at 100 µM (Staphylococcus aureus [3]) is reported as 19 mm. The Activity [4] was 60.3%, the Activity (DNA [5]) was “inactive” and the Activity (DNA [6]) was “Dose-dependent effect”. For the same compound, the Activity [7] was “Dose-dependent effect”, the IC50 [7] was 1.71 µM and the zone of inhibition at 100 µM (Escherichia coli [8]) was 17 mm. For the same compound, the Activity (DNA [9]) was “Active”, the Activity (DNA [10]) was “Active” and the MIC (Pseudomonas aeruginosa [11]) was 25 mg/L (≈ 64.2 µM). For the same compound, the MIC (Escherichia coli [12]) was 33 mg/L (≈ 84.7 µM), the Activity (DNA [13]) was “Active” and the MIC (Staphylococcus aureus [14]) was 24 mg/L (≈ 61.6 µM). It also gave a zone of inhibition at 100 µM (Priestia megaterium) of 18 mm, an Activity [15] of 70.2% and a zone of inhibition at 100 µM (Pseudomonas aeruginosa [16]) of 18 mm.
In the case of `CCOC(=O)C1=C2c3ccccc3S(=O)(=O)N2CC1`, the Activity (DNA [1]) is reported as “Active”, the Activity [2] is reported as 48.3% and the zone of inhibition at 100 µM (Staphylococcus aureus [3]) is reported as 17 mm. For the same compound, the Activity [4] was 46.7%, the Activity (DNA [5]) was “inactive” and the Activity (DNA [6]) was “Dose-dependent effect”. For the same compound, the Activity [7] was “Dose-dependent effect”, the IC50 [7] was 2.07 µM and the zone of inhibition at 100 µM (Escherichia coli [8]) was 16 mm. The Activity (DNA [10]) was “Active”, the MIC (Pseudomonas aeruginosa [11]) was 15 mg/L (≈ 53.7 µM) and the MIC (Escherichia coli [12]) was 18 mg/L (≈ 64.4 µM). For the same compound, the MIC (Staphylococcus aureus [14]) was 14 mg/L (≈ 50.1 µM), the zone of inhibition at 100 µM (Priestia megaterium) was 16 mm and the Activity [15] was 19.6%. For the same compound, the zone of inhibition at 100 µM (Pseudomonas aeruginosa [16]) was 14 mm.
In the case of `COc1ccc(NC(=O)C2=C3c4ccccc4S(=O)(=O)N3CC2)cc1`, the Activity (DNA [1]) is reported as “Active”, the Activity [2] is reported as 49.4% and the zone of inhibition at 100 µM (Staphylococcus aureus [3]) is reported as 16 mm. The Activity [4] was 48.2%, the Activity (DNA [5]) was “inactive” and the Activity (DNA [6]) was “Dose-dependent effect”. For the same compound, the Activity [7] was “Dose-dependent effect”, the IC50 [7] was 2.02 µM and the zone of inhibition at 100 µM (Escherichia coli [8]) was 15 mm. For the same compound, the Activity (DNA [10]) was “Active”, the MIC (Pseudomonas aeruginosa [11]) was 33 mg/L (≈ 92.6 µM) and the MIC (Escherichia coli [12]) was 22 mg/L (≈ 61.7 µM). For the same compound, the MIC (Staphylococcus aureus [14]) was 22 mg/L (≈ 61.7 µM), the zone of inhibition at 100 µM (Priestia megaterium) was 13 mm and the Activity [15] was 61%. For the same compound, the zone of inhibition at 100 µM (Pseudomonas aeruginosa [16]) was 14 mm.
In the case of `COC(=O)C1=C2c3ccccc3S(=O)(=O)N2CC1`, the Activity (DNA [1]) is reported as “Active”, the Activity [2] is reported as 59.4% and the zone of inhibition at 100 µM (Staphylococcus aureus [3]) is reported as 20 mm. For the same compound, the Activity [4] was 63.8%, the Activity (DNA [5]) was “inactive” and the Activity (DNA [6]) was “Dose-dependent effect”. The Activity [7] was “Dose-dependent effect”, the IC50 [7] was 1.68 µM and the zone of inhibition at 100 µM (Escherichia coli [8]) was 17 mm. For the same compound, the Activity (DNA [9]) was “Active”, the Activity (DNA [10]) was “Active” and the MIC (Pseudomonas aeruginosa [11]) was 14 mg/L (≈ 52.8 µM). For the same compound, the MIC (Escherichia coli [12]) was 15 mg/L (≈ 56.5 µM), the MIC (Staphylococcus aureus [14]) was 15 mg/L (≈ 56.5 µM) and the zone of inhibition at 100 µM (Priestia megaterium) was 19 mm. The Activity [15] was 36.6% and the zone of inhibition at 100 µM (Pseudomonas aeruginosa [16]) was 16 mm.
With `CC1(C)[C@H]2CC[C@]1(C)[C@H](OC(=O)C1=C3c4ccccc4S(=O)(=O)N3CC1)C2` the Activity (DNA [1]) was “Active”, the Activity [2] was 60.1% and the zone of inhibition at 100 µM (Staphylococcus aureus [3]) was 18 mm. The Activity [4] was 62.7%, the Activity (DNA [5]) was “inactive” and the Activity (DNA [6]) was “Dose-dependent effect”. For the same compound, the Activity [7] was “Dose-dependent effect”, the IC50 [7] was 1.66 µM and the zone of inhibition at 100 µM (Escherichia coli [8]) was 16 mm. For the same compound, the Activity (DNA [9]) was “Active”, the Activity (DNA [10]) was “Active” and the MIC (Pseudomonas aeruginosa [11]) was 27 mg/L (≈ 69.7 µM). For the same compound, the MIC (Escherichia coli [12]) was 23 mg/L (≈ 59.4 µM), the MIC (Staphylococcus aureus [14]) was 18 mg/L (≈ 46.5 µM) and the zone of inhibition at 100 µM (Priestia megaterium) was 17 mm. The Activity [15] was 63% and the zone of inhibition at 100 µM (Pseudomonas aeruginosa [16]) was 14 mm.
With `O=C(Nc1ccc([N+](=O)[O-])cc1)C1=C2c3ccccc3S(=O)(=O)N2CC1` the Activity (DNA [1]) was “Active”, the Activity [2] was 51.2% and the zone of inhibition at 100 µM (Staphylococcus aureus [3]) was 12 mm. For the same compound, the Activity [4] was 54.7%, the Activity (DNA [5]) was “inactive” and the Activity (DNA [6]) was “Dose-dependent effect”. For the same compound, the Activity [7] was “Dose-dependent effect”, the IC50 [7] was 1.95 µM and the zone of inhibition at 100 µM (Escherichia coli [8]) was 13 mm. For the same compound, the Activity (DNA [10]) was “Active”, the MIC (Pseudomonas aeruginosa [11]) was 19 mg/L (≈ 51.2 µM) and the MIC (Escherichia coli [12]) was 24 mg/L (≈ 64.6 µM). For the same compound, the MIC (Staphylococcus aureus [14]) was 18 mg/L (≈ 48.5 µM), the zone of inhibition at 100 µM (Priestia megaterium) was 11 mm and the Activity [15] was 56.6%. The zone of inhibition at 100 µM (Pseudomonas aeruginosa [16]) was 14 mm.
